For this test, the system named is MV-4-11 cells. Description: Gene expression microarray analysis (Affymetrix PrimeView) and GSEA. The format is cell-based, human. Further details: RFU PODN (11730768_x_at) / Fold change /veh PODN (11730768_x_at) / RFU LINC00158 (11744669_a_at) / Fold change /veh LINC00158 (11744669_a_at) / RFU DUSP10 (11751237_a_at) / Fold change /veh DUSP10 (11751237_a_at) / RFU ID3 (11757404_x_at) / Fold change /veh ID3 (11757404_x_at) / RFU PLEKHG5 (11737974_s_at) / Fold change /veh PLEKHG5 (11737974_s_at) / RFU LRRC4B (11730491_at) / Fold change /veh LRRC4B (11730491_at) / RFU GIMAP4 (11747438_a_at) / Fold change /veh GIMAP4 (11747438_a_at) / RFU KRT8 (11758183_x_at) / Fold change /veh KRT8 (11758183_x_at) / RFU CNN1 (11734310_a_at) / Fold change /veh CNN1 (11734310_a_at) / RFU VPS37D (11726825_at) / Fold change /veh VPS37D (11726825_at) / RFU C10orf10 (11716522_x_at) / Fold change /veh C10orf10 (11716522_x_at) / RFU KIR2DL2 /// KIR2DL4 /// KIR2DL5A /// KIR2DL5B /// KIR2DS1 /// KIR2DS2 /// KIR2DS3 /// KIR2DS4 /// KIR3DL3 /// KIR3DL3 /// KIR3DS1 (11738374_at) / Fold change /veh KIR2DL2 /// KIR2DL4 /// KIR2DL5A /// KIR2DL5B /// KIR2DS1 /// KIR2DS2 /// KIR2DS3 /// KIR2DS4 /// KIR3DL3 /// KIR3DL3 /// KIR3DS1 (11738374_at) / RFU C1QL1 (11718748_at) / Fold change /veh C1QL1 (11718748_at) / RFU TMPRSS4 (11747572_a_at) / Fold change /veh TMPRSS4 (11747572_a_at) / RFU HAMP (11756126_x_at) / Fold change /veh HAMP (11756126_x_at) / RFU RNFT2 (11725882_a_at) / Fold change /veh RNFT2 (11725882_a_at) / RFU NR4A2 (11747474_a_at) / Fold change /veh NR4A2 (11747474_a_at) / RFU ABCC12 (11746883_a_at) / Fold change /veh ABCC12 (11746883_a_at) / RFU TMEM136 (11760407_x_at) / Fold change /veh TMEM136 (11760407_x_at) / RFU CLDN22 /// WWC2 (11732394_at) / Fold change /veh CLDN22 /// WWC2 (11732394_at) / RFU HLA-DPB1 (11760878_x_at) / Fold change /veh HLA-DPB1 (11760878_x_at) / RFU SPINT1 (11716480_a_at) / Fold change /veh SPINT1 (11716480_a_at) / RFU GAP43 (11754022_s_at) / Fold change /veh GAP43 (11754022_s_at) / RFU A4GNT (11735810_at) / Fold change /veh A4GNT (11735810_at) / RFU PRB3 (11715151_x_at) / Fold change /veh PRB3 (11715151_x_at) / RFU TUBB4B (11761932_at) / Fold change /veh TUBB4B (11761932_at) / RFU CAPN14 (11732068_a_at) / Fold change /veh CAPN14 (11732068_a_at) / RFU TMCC2 (11721928_a_at) / Fold change /veh TMCC2 (11721928_a_at) / RFU IRGQ (11745062_a_at) / Fold change /veh IRGQ (11745062_a_at) / RFU FAM174B (11720279_a_at) / Fold change /veh FAM174B (11720279_a_at) / RFU TMPRSS4 (11748680_a_at) / Fold change /veh TMPRSS4 (11748680_a_at) / RFU FAM212B (11763350_a_at) / Fold change /veh FAM212B (11763350_a_at) / RFU PLEKHG5 (11743358_a_at) / Fold change /veh PLEKHG5 (11743358_a_at) / RFU ZSCAN30 (11745921_a_at) / Fold change /veh ZSCAN30 (11745921_a_at) / RFU CMKLR1 (11741424_a_at) / Fold change /veh CMKLR1 (11741424_a_at) / RFU LOC101060620 /// MAPK8IP1 (11723275_at) / Fold change /veh LOC101060620 /// MAPK8IP1 (11723275_at) / RFU SPTSSB (11747773_x_at) / Fold change /veh SPTSSB (11747773_x_at) / RFU PRSS12 (11739890_at) / Fold change /veh PRSS12 (11739890_at) / RFU BIN1 (11741810_x_at) / Fold change /veh BIN1 (11741810_x_at) / RFU WNT11 (11732464_a_at) / Fold change /veh WNT11 (11732464_a_at) / RFU C10orf10 (11716521_a_at) / Fold change /veh C10orf10 (11716521_a_at) / RFU C5orf56 (11738089_at) / Fold change /veh C5orf56 (11738089_at) / RFU CYB561 (11721691_x_at) / Fold change /veh CYB561 (11721691_x_at) / RFU ANKRD19P (11752326_a_at) / Fold change /veh ANKRD19P (11752326_a_at) / RFU OR2T12 /// OR2T33 /// OR2T8 (11738714_s_at) / Fold change /veh OR2T12 /// OR2T33 /// OR2T8 (11738714_s_at) / RFU VCAN (11748164_a_at) / Fold change /veh VCAN (11748164_a_at) / RFU JSRP1 (11732532_at) / Fold change /veh JSRP1 (11732532_at) / RFU KRTAP10-11 (11738290_x_at) / Fold change /veh KRTAP10-11 (11738290_x_at) / RFU MYO3A (11730013_a_at) / Fold change /veh MYO3A (11730013_a_at) / RFU EBF3 (11725865_a_at) / Fold change /veh EBF3 (11725865_a_at) / RFU CAMK2N1 (11719241_x_at) / Fold change /veh CAMK2N1 (11719241_x_at) / RFU C5orf56 (11738088_a_at) / Fold change /veh C5orf56 (11738088_a_at) / RFU OLFML3 (11715873_a_at) / Fold change /veh OLFML3 (11715873_a_at) / RFU LOC100653217 /// NTM (11731650_a_at) / Fold change /veh LOC100653217 /// NTM (11731650_a_at) / RFU MAPK11 (11762145_a_at) / Fold change /veh MAPK11 (11762145_a_at) / RFU FIZ1 (11724087_x_at) / Fold change /veh FIZ1 (11724087_x_at) / RFU OASL (11726364_x_at) / Fold change /veh OASL (11726364_x_at) / RFU SOX15 (11748057_x_at) / Fold change /veh SOX15 (11748057_x_at) / RFU CD79A (11719716_a_at) / Fold change /veh CD79A (11719716_a_at) / RFU HIST1H1D (11736915_at) / Fold change /veh HIST1H1D (11736915_at) / RFU CASKIN2 (11723855_a_at) / Fold change /veh CASKIN2 (11723855_a_at) / RFU LOC730098 (11760151_x_at) / Fold change /veh LOC730098 (11760151_x_at) / RFU OR4N2 (11742367_at) / Fold change /veh OR4N2 (11742367_at) / RFU PRRT2 (11749266_a_at) / Fold change /veh PRRT2 (11749266_a_at) / RFU SNX32 (11753110_a_at) / Fold change /veh SNX32 (11753110_a_at) / RFU CDHR5 (11726645_a_at) / Fold change /veh CDHR5 (11726645_a_at) / RFU RCAN1 (11760418_a_at) / Fold change /veh RCAN1 (11760418_a_at) / RFU FAM167A (11723789_a_at) / Fold change /veh FAM167A (11723789_a_at) / RFU FAM26E (11764081_at) / Fold change /veh FAM26E (11764081_at) / RFU ISYNA1 (11749810_s_at) / Fold change /veh ISYNA1 (11749810_s_at) / RFU ACY1 (11761880_at) / Fold change /veh ACY1 (11761880_at) / RFU 11764098_at / Fold change /veh 11764098_at / RFU SAMD14 (11745864_x_at) / Fold change /veh SAMD14 (11745864_x_at) / RFU NPB (11741838_a_at) / Fold change /veh NPB (11741838_a_at) / RFU TMPRSS6 (11731388_a_at) / Fold change /veh TMPRSS6 (11731388_a_at) / RFU KRTAP10-2 (11738614_at) / Fold change /veh KRTAP10-2 (11738614_at) / RFU ARHGAP8 /// PRR5-ARHGAP8 (11727945_x_at) / Fold change /veh ARHGAP8 /// PRR5-ARHGAP8 (11727945_x_at) / RFU KRTAP5-7 /// NADSYN1 (11734609_at) / Fold change /veh KRTAP5-7 /// NADSYN1 (11734609_at) / RFU RASL12 (11751679_a_at) / Fold change /veh RASL12 (11751679_a_at) / RFU CDKN2B (11736163_a_at) / Fold change /veh CDKN2B (11736163_a_at) / RFU PRF1 (11729649_at) / Fold change /veh PRF1 (11729649_at) / RFU, ZNF638 /// ZNF638-IT1 / Fold change vs veh, ZNF638 /// ZNF638-IT1 / RFU, PANK3 / Fold change vs veh, PANK3 / RFU, SH3YL1 / Fold change vs veh, SH3YL1 / RFU, ZEB2 / Fold change vs veh, ZEB2 / RFU, NRIP1 / Fold change vs veh, NRIP1 / RFU, PTTG1IP / Fold change vs veh, PTTG1IP / RFU, CAPN2 / Fold change vs veh, CAPN2 / RFU, MED14 / Fold change vs veh, MED14 / RFU, SNORA58 / Fold change vs veh, SNORA58 / RFU, C1orf63 / Fold change vs veh, C1orf63 / RFU, LRRFIP1 / Fold change vs veh, LRRFIP1 / RFU, NDUFAF7 / Fold change vs veh, NDUFAF7 / RFU, SLC12A2 / Fold change vs veh, SLC12A2 / RFU, IBTK / Fold change vs veh, IBTK / RFU, ESF1 / Fold change vs veh, ESF1 / Fold change vs veh, TMEM50B / RFU, TAOK1 / Fold change vs veh, TAOK1 / RFU, ACBD3 / Fold change vs veh, ACBD3 / RFU, TMA16 / Fold change vs veh, TMA16 / RFU, RWDD3 / Fold change vs veh, RWDD3 / RFU, BCAT1 / Fold change vs veh, BCAT1 / RFU, EDEM3 / Fold change vs veh, EDEM3 / RFU, TMEM33 / Fold change vs veh, TMEM33 / RFU, WDR75 / Fold change vs veh, WDR75 / RFU, AHCTF1 / Fold change vs veh, AHCTF1 / RFU, TFRC / Fold change vs veh, TFRC / RFU, ZDHHC17 / Fold change vs veh, ZDHHC17 / RFU, NOM1 / Fold change vs veh, NOM1 / RFU, ARL8B / Fold change vs veh, ARL8B / RFU, ZBTB11 / Fold change vs veh, ZBTB11 / RFU, TAMM41 / Fold change vs veh, TAMM41 / RFU, KIAA1704 /// LOC100996395 / Fold change vs veh, KIAA1704 /// LOC100996395 / RFU, ING1 / Fold change vs veh, ING1 / RFU, TRMT61B / Fold change vs veh, TRMT61B / RFU, FUBP3 / Fold change vs veh, FUBP3 / RFU, TP53 / Fold change vs veh, TP53 / RFU, TNKS2 / Fold change vs veh, TNKS2 / RFU, ZFP14 / Fold change vs veh, ZFP14 / RFU, ACTR2 / Fold change vs veh, ACTR2 / RFU, PPP3R1 / Fold change vs veh, PPP3R1 / RFU, PIK3R1 / Fold change vs veh, PIK3R1 / RFU, HNRNPA1 / Fold change vs veh, HNRNPA1 / RFU, RNF170 / Fold change vs veh, RNF170 / RFU, ZNF28 / Fold change vs veh, ZNF28 / RFU, RNGTT / Fold change vs veh, RNGTT / RFU, OGT / Fold change vs veh, OGT / RFU, BRD1 / Fold change vs veh, BRD1 / RFU, MARS / Fold change vs veh, MARS / RFU, ZNF655 / Fold change vs veh, ZNF655 / RFU, FAHD1 / Fold change vs veh, FAHD1 / RFU, BDP1 / Fold change vs veh, BDP1 / RFU, LRRCC1 / Fold change vs veh, LRRCC1 / RFU, ARID1A / Fold change vs veh, ARID1A / RFU, ZNF146 / Fold change vs veh, ZNF146 / RFU, ZNF330 / Fold change vs veh, ZNF330 / RFU, GPN3 / Fold change vs veh, GPN3 / RFU, C9orf123 / Fold change vs veh, C9orf123 / RFU, N4BP2L2 / Fold change vs veh, N4BP2L2 / RFU, ARFIP1 / Fold change vs veh, ARFIP1 / RFU, FAM179B / Fold change vs veh, FAM179B / RFU, BCL10 / Fold change vs veh, BCL10 / RFU, UHRF1BP1L / Fold change vs veh, UHRF1BP1L / RFU, BET1 / Fold change vs veh, BET1 / RFU, CNOT2 / Fold change vs veh, CNOT2 / RFU, ZNF268 / Fold change vs veh, ZNF268 / Fold change vs veh, ZNF507 / RFU, DGCR2 / Fold change vs veh, DGCR2 / RFU, WDSUB1 / Fold change vs veh, WDSUB1 / Fold change vs veh, HSP90B1 /// MIR3652 / RFU, ADSS / Fold change vs veh, ADSS / RFU, GK / Fold change vs veh, GK / RFU, ZNF148 / Fold change vs veh, ZNF148 / RFU, TAF9 / Fold change vs veh, TAF9 / RFU, SLC1A5 / Fold change vs veh, SLC1A5 / RFU, SLMO2 / Fold change vs veh, SLMO2 / RFU, ABCC4 / Fold change vs veh, ABCC4 / RFU, LOC101060439 /// RAP1B / Fold change vs veh, LOC101060439 /// RAP1B / RFU, RFX7 / Fold change vs veh, RFX7 / RFU, GTPBP10 / Fold change vs veh, GTPBP10 / RFU, CNEP1R1 / Fold change vs veh, CNEP1R1 / RFU, BIVM-ERCC5 /// ERCC5 / Fold change vs veh, BIVM-ERCC5 /// ERCC5 / RFU, ILF3 / Fold change vs veh, ILF3 / RFU 11762660_at / Fold change /veh 11762660_at / RFU VCAN (11757783_s_at) / Fold change /veh VCAN (11757783_s_at) / RFU DDX43 (11728927_at) / Fold change /veh DDX43 (11728927_at) / RFU KRT8 (11758188_x_at) / Fold change /veh KRT8 (11758188_x_at) / RFU NKD1 (11759106_at) / Fold change /veh NKD1 (11759106_at) / RFU SRD5A1 (11742802_a_at) / Fold change /veh SRD5A1 (11742802_a_at) / RFU TPSAB1 /// TPSB2 (11721975_s_at) / Fold change /veh TPSAB1 /// TPSB2 (11721975_s_at) / RFU GSTM3 (11746129_a_at) / Fold change /veh GSTM3 (11746129_a_at) / RFU IL23R (11737362_x_at) / Fold change /veh IL23R (11737362_x_at) / RFU TMEM51 (11727254_a_at) / Fold change /veh TMEM51 (11727254_a_at) / RFU PIWIL2 (11732686_x_at) / Fold change /veh PIWIL2 (11732686_x_at) / RFU ORM1 (11744905_x_at) / Fold change /veh ORM1 (11744905_x_at) / RFU CCDC152 (11743942_at) / Fold change /veh CCDC152 (11743942_at) / RFU ECM1 (11717891_a_at) / Fold change /veh ECM1 (11717891_a_at) / RFU IL23R (11748794_a_at) / Fold change /veh IL23R (11748794_a_at) / RFU TNFAIP8L3 (11732012_x_at) / Fold change /veh TNFAIP8L3 (11732012_x_at) / RFU MBOAT4 (11741988_at) / Fold change /veh MBOAT4 (11741988_at) / RFU 11764193_at / Fold change /veh 11764193_at / RFU TMEM53 (11763286_at) / Fold change /veh TMEM53 (11763286_at) / RFU MAGEB2 (11727129_at) / Fold change /veh MAGEB2 (11727129_at) / RFU TMEM200A (11744735_a_at) / Fold change /veh TMEM200A (11744735_a_at) / RFU CCDC152 (11751479_a_at) / Fold change /veh CCDC152 (11751479_a_at) / RFU FAM211A (11726209_a_at) / Fold change /veh FAM211A (11726209_a_at) / RFU RGS16 (11746705_a_at) / Fold change /veh RGS16 (11746705_a_at) / RFU VCAN (11755009_s_at) / Fold change /veh VCAN (11755009_s_at) / RFU RHOB (11743442_s_at) / Fold change /veh RHOB (11743442_s_at) / RFU RGS16 (11720943_a_at) / Fold change /veh RGS16 (11720943_a_at) / RFU RGS16 (11720944_at) / Fold change /veh RGS16 (11720944_at) / RFU, VPS4B / Fold change vs veh, VPS4B / RFU, CREB1 / Fold change vs veh, CREB1 / RFU, DNAJC13 / Fold change vs veh, DNAJC13 / RFU, GNAQ / Fold change vs veh, GNAQ / RFU, CDK5R1 / Fold change vs veh, CDK5R1 / RFU, ZRANB3 / Fold change vs veh, ZRANB3 / RFU, CUL4A / Fold change vs veh, CUL4A / RFU, CCNY / Fold change vs veh, CCNY / RFU, UFL1 / Fold change vs veh, UFL1 / RFU, COG3 / Fold change vs veh, COG3 / RFU, DIAPH2 / Fold change vs veh, DIAPH2 / RFU, SKA2 / Fold change vs veh, SKA2 / RFU, AFF3 / Fold change vs veh, AFF3 / RFU, LMF1 / Fold change vs veh, LMF1 / RFU, IPO11 / Fold change vs veh, IPO11 / RFU, DFFB / Fold change vs veh, DFFB / RFU, FOXP1 / Fold change vs veh, FOXP1 / RFU, CARD8 / Fold change vs veh, CARD8 / RFU, STRN3 / Fold change vs veh, STRN3 / RFU, ADK / Fold change vs veh, ADK / RFU, RASSF2 / Fold change vs veh, RASSF2 / RFU, WIPF1 / Fold change vs veh, WIPF1 / RFU, LARP1B / Fold change vs veh, LARP1B / RFU, RASA1 / Fold change vs veh, RASA1 / RFU, RB1 / Fold change vs veh, RB1 / RFU, PPFIA1 / Fold change vs veh, PPFIA1 / RFU, MAT2A / Fold change vs veh, MAT2A / RFU, CCT5 / Fold change vs veh, CCT5 / RFU, WDR92 / Fold change vs veh, WDR92 / RFU, CUX1 / Fold change vs veh, CUX1 / RFU, TTC7A / Fold change vs veh, TTC7A / RFU, TMEM135 / Fold change vs veh, TMEM135 / RFU, DEPTOR / Fold change vs veh, DEPTOR / RFU, CPM / Fold change vs veh, CPM / RFU, DNAJB6 / Fold change vs veh, DNAJB6 / RFU, CACNA2D3 / Fold change vs veh, CACNA2D3 / RFU, DTX4 / Fold change vs veh, DTX4 / RFU, TFCP2 / Fold change vs veh, TFCP2 / RFU, GMCL1 /// GMCL1P1 / Fold change vs veh, GMCL1 /// GMCL1P1 / RFU, AEBP2 / Fold change vs veh, AEBP2 / RFU, SNHG1 /// SNORD22 /// SNORD25 /// SNORD26 /// SNORD27 /// SNORD28 /// SNORD29 /// SNORD31 / Fold change vs veh, SNHG1 /// SNORD22 /// SNORD25 /// SNORD26 /// SNORD27 /// SNORD28 /// SNORD29 /// SNORD31 / Fold change (Aza/veh), C12orf56 (ProbeSet 11735607_a_at) / Fold change (ACY-1035/veh), C12orf56 (ProbeSet 11735607_a_at) / Fold change (Aza/veh), FGFR1OP (ProbeSet 11751329_s_at) / Fold change (ACY-1035/veh), FGFR1OP (ProbeSet 11751329_s_at) / Fold change (Aza/veh), VPS36 (ProbeSet 11739960_a_at) / Fold change (ACY-1035/veh), VPS36 (ProbeSet 11739960_a_at) / RFU SYPL1 (11715823_x_at) / Fold change /veh SYPL1 (11715823_x_at) / RFU IGFBP7 (11715501_s_at) / Fold change /veh IGFBP7 (11715501_s_at) / RFU REEP3 (11722064_at) / Fold change /veh REEP3 (11722064_at) / RFU IGLL1 (11728026_x_at) / Fold change /veh IGLL1 (11728026_x_at): dose or concentration left out as unconfirmed. The settings on record: MV-4-11 cells, 48 hours.

Turning to `Nc1ccc(-c2cccs2)cc1NC(=O)c1ccc2c(c1)cc(C1CC1)n2CCN1CCOCC1` [ACY-1035], the “RFU 11764098_at” value is 18.10 RFU.

For the origin of these results see article PMC5218480 (PLoS ONE, 2017).
